Source: patent US20230293565A1, “USE OF WNT/BETA-CATENIN PATHWAY INHIBITORS TO BLOCK REPLICATION OF SARS-COV-2 AND OTHER PATHOGENIC VIRUSES” (THE GOVERNORS OF THE UNIVERSITY OF ALBERTA, priority 2020, published 2023)
“Also recorded” adds a separate entry of the source. Like-named read-outs stand apart in the source and are kept apart here.

What was measured:
Mayaro virus (MAYV) = assay type: cell-based; settings: A549, 1 μM, 24 h pre-treatment, 0.1 MOI
Zika virus (ZIKV) = experiment: Zika virus plaque assay and qRT-PCR in A549 cells; assay type: cell-based; settings: A549, 1 μM, 24 h pre-treatment, 0.1 MOI
Method: FIG. 17. Wnt/β-catenin inhibitors reduce replication of other RNA viruses. A549 cells were treated with Wnt/β-catenin inhibitors (1 μM) or DMSO alone for 24 hours, after which the cells were infected with 0.1 MOI of Zika virus (ZIKV) or Mayaro virus (MAYV). Forty-eight hours later, virus-containing media were subjected to plaque assays and total RNA extracted from cells was subjected to qRT-PCR to determine relative levels of viral RNA. Average viral titers (A,C) and genomic RNA levels (B, D) from drug-treated cells from 3 independent experiments are shown. Error bars represent standard error of the mean. *, P<0.05; **, P<0.01; N.S. (not significant).
(§1) Because Wnt/β-catenin inhibitors enhance the IFN response, we hypothesized that these drugs would be effective against other human coronaviruses and potentially other pathogenic RNA viruses such as flaviviruses and alphaviruses. To test this theory, Calu-3 and A549 cells treated with Wnt/β-catenin inhibitors or DMSO for 24 hours were infected with two different seasonal human coronavirus HCOV-NL63 and HCOV-229E for 24 hours or Zika virus or Mayaro virus for 48 and 24 hours respectively.

HCOV-229E = HCOV-229E plaque assay in Calu3 cells; assay type: cell-based
Method: (§2) FIG. 16. Effect of Wnt/β-catenin inhibitors on other human coronaviruses (HCOVs). Calu3 cells were treated with the indicated concentrations of Wnt/β-catenin inhibitors for 24 hours and then infected with HCOVs NL63 or 229E MOI of 0.5). Twenty-four hours later, media were collected and subjected to plaque assay to determine viral titers. Average titers from there independent experiments are shown.
as §1

HCOV-NL63 = HCOV-NL63 plaque assay in Calu3 cells; assay type: cell-based; settings: Calu3 treated 24 h, MOI 0.5, 24 h
Method: as §2, §1

[1] = test system: SARS-CoV-2 (CANADA/VIDO01/2020 strain); assay type: cell-based
Vero cells = assay type: cell-based, African green monkey; settings: 1 μM (Pyrvinium 100 nM), 48 hours
[2] = test system: type III (IFNλ2) interferon; assay type: cell-based, human; settings: A549 treated 24 h, Sendai virus 8 and 16 hours

O=C([O-])CCN1C(=O)/C(=C/c2ccc(-c3ccc([N+](=O)[O-])cc3)o2)SC1=S.[K+] [KYA1797K]
replication of Mayaro virus (Mayaro virus (MAYV)): most potent
replication of Zika virus (Zika virus (ZIKV)): most potent
titers of HCOV-229E (HCOV-229E; Calu3 treated 24 h, MOI 0.5, 24 h): significantly reduced
titers of HCOV-NL63 (HCOV-NL63): significantly reduced
SARS-CoV-2 replication, drug added 6-hours post-infection (in words) [1]: effectively block; also recorded: reduce SARS-CoV-2 replication
SARS-CoV-2 replication, drug added 12-hours post-infection (in words) [1]: reduce SARS-CoV-2 replication
density of peroxisomes in Vero cells (Vero cells): increases peroxisome density

Cc1cc(-c2ncc(CC(=O)Nc3ccc(-c4cnccn4)cn3)cc2C)ccn1 [LGK-974]
SARS-CoV-2 replication, drug added 6-hours post-infection (in words) [1]: effectively block

Cc1cc(/C=C/c2ccc3cc(N(C)C)ccc3[n+]2C)c(C)n1-c1ccccc1 [Pyrvinium]
induction of type III IFN (IFNλ2 transcripts) [2]: much more dramatic effects
titers of HCOV-229E (HCOV-229E): significantly reduced
titers of HCOV-NL63 (HCOV-NL63): significantly reduced
SARS-CoV-2 replication, drug added 6-hours post-infection (in words) [1]: effectively block; also recorded: reduce SARS-CoV-2 replication
SARS-CoV-2 replication, drug added 12-hours post-infection (in words) [1]: reduce SARS-CoV-2 replication

iCRT-14
induction of type III IFN (IFNλ2 transcripts) [2]: much more dramatic effects
